In ChEMBL document CHEMBL1201862, “PubChem BioAssay data set” (2004):
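In this assay, cells in 96-well plates receive the compound at five concentrations for 48 hours. Endpoints are linearly interpolated between the surrounding concentrations. GI50 marks 50% less growth.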 The source made the active and inactive calls. No stated cut-off is given here; in the data, active = GI50 up to about 1.1 µM and inactive = higher.

Columns and labels:
Test in all cases: NCI tumour cell line growth inhibition, 48 h
786-0 = system: 786-0
A498 = system: A498
A549 = system: A549
ACHN = system: ACHN
BT-549 = system: BT-549
CAKI-1 = system: CAKI-1
CCRF-CEM = system: CCRF-CEM
COLO 205 = system: COLO 205
DU-145 = system: DU-145
EKVX = system: EKVX
HCC 2998 = system: HCC 2998
HCT-116 = system: HCT-116
HCT-15 = system: HCT-15
HL-60 = system: HL-60
HOP-62 = system: HOP-62
HOP-92 = system: HOP-92
HT-29 = system: HT-29
Hs-578T = system: Hs-578T
IGROV-1 = system: IGROV-1
K562 = system: K562
KM12 = system: KM12
LOX IMVI = system: LOX IMVI
M14 = system: M14
MCF7 = system: MCF7
MDA-MB-231 = system: MDA-MB-231
MDA-MB-435 = system: MDA-MB-435
MDA-N = system: MDA-N
MOLT-4 = system: MOLT-4
Malme-3M = system: Malme-3M
NCI-H226 = system: NCI-H226
NCI-H23 = system: NCI-H23
NCI-H460 = system: NCI-H460
NCI-H522 = system: NCI-H522
NCI/ADR-RES = system: NCI/ADR-RES
OVCAR-3 = system: OVCAR-3
OVCAR-4 = system: OVCAR-4
OVCAR-5 = system: OVCAR-5
OVCAR-8 = system: OVCAR-8
PC-3 = system: PC-3
RPMI-8226 = system: RPMI-8226
RXF 393 = system: RXF 393
SF-268 = system: SF-268
SF-295 = system: SF-295
SF-539 = system: SF-539
SK-MEL-28 = system: SK-MEL-28
SK-MEL-2 = system: SK-MEL-2
SK-MEL-5 = system: SK-MEL-5
SK-OV-3 = system: SK-OV-3
SN12C = system: SN12C
SNB-19 = system: SNB-19
SNB-75 = system: SNB-75
SR = system: SR
SW-620 = system: SW-620
T47D = system: T47D
TK-10 = system: TK-10
U-251 = system: U-251
UACC-257 = system: UACC-257
UACC-62 = system: UACC-62
UO-31 = system: UO-31

With `O=C(CCc1ccccc1)NCCc1ccc(O)c(O)c1` the GI50 (786-0) was 21.5 µM (inactive), the GI50 (A498) was 78.2 µM (inactive) and the GI50 (A549) was 47.5 µM (inactive). For the same molecule, the GI50 (ACHN) was 14.2 µM (inactive), the GI50 (BT-549) was 7.01 µM (inactive) and the GI50 (CAKI-1) was 4.99 µM (inactive). For the same molecule, the GI50 (CCRF-CEM) was 1.42 µM (inactive), the GI50 (COLO 205) was 17 µM (inactive) and the GI50 (DU-145) was > 63.2 µM (inactive). The GI50 (EKVX) was 62.4 µM (inactive), the GI50 (HCC 2998) was 53.5 µM (inactive) and the GI50 (HCT-116) was 27.7 µM (inactive). The GI50 (HCT-15) was 31.3 µM, the GI50 (HL-60) was 3.43 µM (inactive) and the GI50 (HOP-62) was > 40.6 µM (inactive). The GI50 (HOP-92) was 17.4 µM (inactive), the GI50 (HT-29) was 39.7 µM (inactive) and the GI50 (Hs-578T) was > 50.1 µM (inactive). For the same molecule, the GI50 (IGROV-1) was 23.5 µM (inactive), the GI50 (K562) was 7.11 µM (inactive) and the GI50 (KM12) was 34.8 µM (inactive). The GI50 (LOX IMVI) was 35.6 µM (inactive), the GI50 (M14) was > 54.8 µM (inactive) and the GI50 (MCF7) was 31.8 µM (inactive). The GI50 (MDA-MB-231) was 24.8 µM (inactive), the GI50 (MDA-MB-435) was 15.6 µM (inactive) and the GI50 (MDA-N) was 14.8 µM (inactive). For the same molecule, the GI50 (MOLT-4) was 3.89 µM (inactive), the GI50 (Malme-3M) was 45.3 µM (inactive) and the GI50 (NCI-H226) was 21.2 µM (inactive). The GI50 (NCI-H23) was 32.4 µM (inactive), the GI50 (NCI-H460) was 46.9 µM (inactive) and the GI50 (NCI-H522) was 5.26 µM (inactive). For the same molecule, the GI50 (NCI/ADR-RES) was 28.4 µM (inactive), the GI50 (OVCAR-3) was 22.2 µM (inactive) and the GI50 (OVCAR-4) was 10.4 µM (inactive). For the same molecule, the GI50 (OVCAR-5) was > 31.6 µM (inactive), the GI50 (OVCAR-8) was 30.3 µM (inactive) and the GI50 (PC-3) was > 42.1 µM (inactive). For the same molecule, the GI50 (RPMI-8226) was 2.54 µM (inactive), the GI50 (RXF 393) was > 100 µM (inactive) and the GI50 (SF-268) was 33.8 µM (inactive). The GI50 (SF-295) was > 53.3 µM (inactive), the GI50 (SF-539) was 23.2 µM (inactive) and the GI50 (SK-MEL-28) was 45.6 µM (inactive). The GI50 (SK-MEL-2) was 22 µM (inactive), the GI50 (SK-MEL-5) was 16.7 µM (inactive) and the GI50 (SK-OV-3) was 27.2 µM (inactive). The GI50 (SN12C) was 36 µM (inactive), the GI50 (SNB-19) was 48.9 µM (inactive) and the GI50 (SNB-75) was 84.5 µM (inactive). The GI50 (SR) was 4.01 µM (inactive), the GI50 (SW-620) was > 100 µM (inactive) and the GI50 (T47D) was 59.4 µM (inactive). The GI50 (TK-10) was > 100 µM (inactive), the GI50 (U-251) was 41.2 µM (inactive) and the GI50 (UACC-257) was 44.6 µM (inactive). The GI50 (UACC-62) was 34.3 µM (inactive) and the GI50 (UO-31) was 4.57 µM (inactive).
With `[N-]=[N+]=Nc1ccc2c(c1)Sc1ccccc1N2CCCCN1CCN(Cc2ccc(C(=O)c3ccccc3)cc2)CC1` the GI50 (786-0) was 5.24 µM (inactive), the GI50 (A498) was 17.4 µM (inactive) and the GI50 (A549) was > 92.5 µM (inactive). The GI50 (ACHN) was 6.46 µM (inactive), the GI50 (BT-549) was > 20.7 µM (inactive) and the GI50 (CAKI-1) was 7.13 µM (inactive). The GI50 (CCRF-CEM) was 5.97 µM (inactive), the GI50 (COLO 205) was 1.79 µM (inactive) and the GI50 (DU-145) was > 100 µM (inactive). The GI50 (EKVX) was 6.67 µM (inactive), the GI50 (HCC 2998) was 2.13 µM (inactive) and the GI50 (HCT-116) was 3.43 µM (inactive). For the same molecule, the GI50 (HCT-15) was 3.47 µM, the GI50 (HL-60) was 2.47 µM (inactive) and the GI50 (HOP-62) was > 38.9 µM (inactive). The GI50 (HOP-92) was 2.29 µM (inactive), the GI50 (HT-29) was 1.46 µM (inactive) and the GI50 (Hs-578T) was 16.3 µM (inactive). The GI50 (IGROV-1) was > 22.3 µM (inactive), the GI50 (K562) was 3.23 µM (inactive) and the GI50 (KM12) was 3.01 µM (inactive). The GI50 (LOX IMVI) was 1.76 µM (inactive), the GI50 (M14) was 2 µM (inactive) and the GI50 (MCF7) was 2.64 µM (inactive). For the same molecule, the GI50 (MDA-MB-231) was 3.11 µM (inactive), the GI50 (MDA-MB-435) was 4.92 µM (inactive) and the GI50 (MDA-N) was 9.51 µM (inactive). For the same molecule, the GI50 (MOLT-4) was 3.6 µM (inactive), the GI50 (Malme-3M) was 1.95 µM (inactive) and the GI50 (NCI-H226) was 20.4 µM (inactive). For the same molecule, the GI50 (NCI-H23) was 6.49 µM (inactive), the GI50 (NCI-H460) was 2.85 µM (inactive) and the GI50 (NCI-H522) was 1.85 µM (inactive). The GI50 (NCI/ADR-RES) was 3.68 µM (inactive), the GI50 (OVCAR-3) was 3.72 µM (inactive) and the GI50 (OVCAR-4) was 4.6 µM (inactive). For the same molecule, the GI50 (OVCAR-5) was 4.16 µM (inactive), the GI50 (OVCAR-8) was 3.4 µM (inactive) and the GI50 (PC-3) was 3.35 µM (inactive). For the same molecule, the GI50 (RPMI-8226) was 3.86 µM (inactive), the GI50 (RXF 393) was 1.72 µM (inactive) and the GI50 (SF-268) was 5.6 µM (inactive). For the same molecule, the GI50 (SF-295) was 23.4 µM (inactive), the GI50 (SF-539) was 3.35 µM (inactive) and the GI50 (SK-MEL-28) was 1.96 µM (inactive). The GI50 (SK-MEL-2) was 2.65 µM (inactive), the GI50 (SK-MEL-5) was 2.13 µM (inactive) and the GI50 (SK-OV-3) was > 100 µM (inactive). The GI50 (SN12C) was > 25.3 µM (inactive), the GI50 (SNB-19) was > 100 µM (inactive) and the GI50 (SNB-75) was 4.32 µM (inactive). The GI50 (SR) was 3 µM (inactive), the GI50 (SW-620) was 6.22 µM (inactive) and the GI50 (T47D) was 3.39 µM (inactive). For the same molecule, the GI50 (TK-10) was > 39.6 µM (inactive), the GI50 (U-251) was 5.74 µM (inactive) and the GI50 (UACC-257) was 2.04 µM (inactive). For the same molecule, the GI50 (UACC-62) was 2.43 µM (inactive) and the GI50 (UO-31) was 2.51 µM (inactive).
